Literature values, collected in article PMC6698915 (Cancer chemotherapy and pharmacology, 2015).

Tested on: patients with locally advanced (M0) head and neck cancer
Conditions: with cisplatin and docetaxel 75 mg/m^2 q21 days, pegfilgrastim, previously untreated; cited from earlier work

## CO[C@H]1C[C@@H]2CC[C@@H](C)[C@@](O)(O2)C(=O)C(=O)N2CCCC[C@H]2C(=O)O[C@H]([C@H](C)C[C@@H]2CC[C@@H](OCCO)[C@H](OC)C2)CC(=O)[C@H](C)/C=C(\C)[C@@H](O)[C@@H](OC)C(=O)[C@H](C)C[C@H](C)/C=C/C=C/C=C/1C [everolimus]
  escalation to full dose of daily everolimus: not possible to escalate to full dose of daily everolimus due to dose-limiting neutropenia
